Legend:
[1] = target: T1, HSP90a protein (Homo sapiens, UniProt P07900); assay: HSP90α-binding fluorescent polarization (FP) assay, BODIPY-labeled RNK04010 probe; settings: FP competition with RNK04010 (BODIPY-labeled), 5 nM, 300 min at 25° C.
T1 construct: purchased BPS Bioscience 50298
In short: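 Compounds (20 μM down to 5.2 nM, 2.5-fold steps) compete with a 5 nM fluorescent tracer for N-terminal HSP90a, measured by fluorescence polarization. With FITC-geldanamycin, plates sit 120 min at 25 °C. With BODIPY-RNK04010, they sit 300 min at 25 °C.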

[2] = system: NCI-H358 human non-small cell lung cancer; assay: NCI-H358 CCK-8 proliferation assay; type: cell-based; settings: NCI-H358 cells, 72 hr
Procedure: The following cancer cell lines were employed: BT-474 human breast carcinoma (ATCC, #HTB-20); MIA PaCa-2 human pancreatic carcinoma [2 copies KRAS(G12C)](ATCC, #CRL-1420); NCI-H23 human non-small cell lung cancer [1 copy KRAS(G12C)](ATCC, #CRL-5800); NCI-H358 human non-small cell lung cancer [1 copy KRAS(G12C)](ATCC, #CRL-5807); LU65A human lung carcinoma (Pharmaron, Beijing, China). Cell lines were cultured essentially according to ATCC and Pharmaron recommendations.
Cancer Cell Line Proliferation (CCK-8) Assays
3-fold serial dilutions of each test compound were prepared ranging from 20 μM to 1.02 nM.
% Inhibition=100−(D−B)/(S−B)*100%. • S: Absorbance of cells treated with DMSO • D: Absorbance of compound-treated cells • B: Absorbance of medium with DMSO without cells

[3] = system: MIA PaCa-2 human pancreatic carcinoma; assay: MIA PaCa-2 CCK-8 proliferation assay; type: cell-based; settings: Homo sapiens, MIA PaCa-2, 72 h, MIA PaCa-2 cells
In short: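 Percent inhibition derived from CCK-8 optical signal, normalised between DMSO-only cells (0%) and cell-free medium containing DMSO as background. Cells: MIA PaCa-2 carrying 2 KRAS(G12C) copies; NCI-H358, NCI-H23 carrying 1 copy apiece. Concentrations spanned 1.02 nM–20 μM in threefold increments.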

[4] = target: KRAS(G12C) (Homo sapiens, UniProt P01116, G12C); assay: KRAS(G12C)/SOS1 homogeneous time-resolved fluorescence (HTRF) assay; parameters: purchased Cisbio 63ADK000CB16PEG; settings: absence of GTP, 4° C. for 3 hr, read-out: KRAS (G12C) binding
Chain of KRAS(G12C) (P01116 1-188 isoform P01116-2 G12C): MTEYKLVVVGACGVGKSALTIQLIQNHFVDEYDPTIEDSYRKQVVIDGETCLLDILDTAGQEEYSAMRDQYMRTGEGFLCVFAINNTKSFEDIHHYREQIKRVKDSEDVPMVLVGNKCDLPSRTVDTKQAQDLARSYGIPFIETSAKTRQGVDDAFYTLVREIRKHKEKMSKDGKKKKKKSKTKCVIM
In short: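 Three-hour incubation at 4 °C of 3-fold compound dilutions (lowest 1.02 nM) with KRAS(G12C), SOS1 and detection reagents, GTP absent. Disruption of the KRAS(G12C)/SOS1 complex detected by time-resolved fluorescence.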

| IC50 [1] | EC50 [2] | EC50 [3] | IC50 [4] | Structure (SMILES) |
| --- | --- | --- | --- | --- |
| 0.1 to 1 µM | 0.1 to 1 µM | – | – | C=CC(=O)N1CCN(c2nc(NCCC(=O)N3CCC(CN4CCN(Cc5ccc(-n6c(C(=O)NCC(F)(F)F)nnc6-c6cc(C)c(O)cc6O)cc5)CC4)CC3)nc3c2CCN(c2cccc4ccccc24)C3)C[C@H]1CC#N [Compound 77, (R)-4-(4-((4-((1-(3-((4-(4-acryloyl-3-(cyanomethyl)piperazin-1-yl)-7-(naphthalen-1-yl)-5,6,7,8-tetrahydropyrido[3,4-d]pyrimidin-2-yl)amino)propanoyl)piperidin-4-yl)methyl)piperazin-1-yl)methyl)phenyl)-5-(2,4-dihydroxy-5-methylphenyl)-N-(2,2,2-trifluoroethyl)-4H-1,2,4-triazole-3-carboxamide, trifluoroacetic acid] |
| 0.1 to 1 µM | > 1 µM | – | – | CC(=O)N1CCN(c2nc(NCCC(=O)N3CCC(Cc4ccc(-n5c(O)nnc5-c5cc(C(C)C)c(O)cc5O)cc4)CC3)nc3c2CCN(c2cc(O)cc4ccccc24)C3)CC1 [Compound 28, 3-((4-(4-acetylpiperazin-1-yl)-7-(3-hydroxynaphthalen-1-yl)-5,6,7,8-tetrahydropyrido[3,4-d]pyrimidin-2-yl)amino)-1-(4-(4-(3-(2,4-dihydroxy-5-isopropylphenyl)-5-hydroxy-4H-1,2,4-triazol-4-yl)benzyl)piperidin-1-yl)propan-1-one, trifluoroacetic acid] |
| 0.1 to 1 µM | > 1 µM | – | – | CCC(=O)N1CCN(c2nc(NCCC(=O)NCCOc3ccc(-n4c(O)nnc4-c4cc(C(C)C)c(O)cc4O)cc3)nc3c2CCN(c2cc(O)cc4ccccc24)C3)CC1 [Compound 51, N-(2-(4-(3-(2,4-dihydroxy-5-isopropylphenyl)-5-hydroxy-4H-1,2,4-triazol-4-yl)phenoxy)ethyl)-3-((7-(3-hydroxynaphthalen-1-yl)-4-(4-propionylpiperazin-1-yl)-5,6,7,8-tetrahydropyrido[3,4-d]pyrimidin-2-yl)amino)propanamide, trifluoroacetic acid] |
| > 1 µM | > 1 µM | – | – | CC(=O)N1CCN(c2nc(NCCC(=O)NCc3ccc(-n4c(O)nnc4-c4cc(C)c(O)cc4O)cc3)nc3c2CCN(c2cc(O)cc4ccccc24)C3)CC1 [Compound 44, 3-((4-(4-acetylpiperazin-1-yl)-7-(3-hydroxynaphthalen-1-yl)-5,6,7,8-tetrahydropyrido[3,4-d]pyrimidin-2-yl)amino)-N-(4-(3-(2,4-dihydroxy-5-methylphenyl)-5-hydroxy-4H-1,2,4-triazol-4-yl)benzyl)propanamide, trifluoroacetic acid] |
| 0.1 to 1 µM | > 1 µM | – | – | CCC(=O)N1CCN(c2nc(NCCC(=O)NCCc3ccc(-n4c(O)nnc4-c4cc(C(C)C)c(O)cc4O)cc3)nc3c2CCN(c2cc(O)cc4ccccc24)C3)CC1 [Compound 74, N-(4-(3-(2,4-dihydroxy-5-isopropylphenyl)-5-hydroxy-4H-1,2,4-triazol-4-yl)phenethyl)-3-((7-(3-hydroxynaphthalen-1-yl)-4-(4-propionylpiperazin-1-yl)-5,6,7,8-tetrahydropyrido[3,4-d]pyrimidin-2-yl)amino)propanamide, trifluoroacetic acid] |
| > 1 µM | > 1 µM | – | – | C=CC(=O)N1CCN(c2nc(NCCC(=O)N3CCC(CN4CCN(Cc5ccc(-n6c(O)nnc6-c6ccc(O)cc6O)cc5)CC4)CC3)nc3c2CCN(c2cc(O)cc4ccccc24)C3)CC1 [Compound 13, 1-(4-(2-((3-(4-((4-(4-(3-(2,4-dihydroxyphenyl)-5-hydroxy-4H-1,2,4-triazol-4-yl)benzyl)piperazin-1-yl)methyl)piperidin-1-yl)-3-oxopropyl)amino)-7-(3-hydroxynaphthalen-1-yl)-5,6,7,8-tetrahydropyrido[3,4-d]pyrimidin-4-yl)piperazin-1-yl)prop-2-en-1-one, trifluoroacetic acid] |
| 0.1 to 1 µM | > 1 µM | – | – | CCC(=O)N1CCN(c2nc(NCCC(=O)NCCOCCOc3ccc(-n4c(O)nnc4-c4cc(C(C)C)c(O)cc4O)cc3)nc3c2CCN(c2cc(O)cc4ccccc24)C3)CC1 [Compound 73, N-(2-(2-(4-(3-(2,4-dihydroxy-5-isopropylphenyl)-5-hydroxy-4H-1,2,4-triazol-4-yl)phenoxy)ethoxy)ethyl)-3-((7-(3-hydroxynaphthalen-1-yl)-4-(4-propionylpiperazin-1-yl)-5,6,7,8-tetrahydropyrido[3,4-d]pyrimidin-2-yl)amino)propanamide, trifluoroacetic acid] |
| 0.1 to 1 µM | > 1 µM | – | – | C=CC(=O)N1CCN(c2nc(NCCC(=O)NCCc3ccc(-n4c(O)nnc4-c4cc(C(C)C)c(O)cc4O)cc3)nc3c2CCN(c2cc(O)cc4ccccc24)C3)CC1 [Compound 4, 3-((4-(4-acryloylpiperazin-1-yl)-7-(3-hydroxynaphthalen-1-yl)-5,6,7,8-tetrahydropyrido[3,4-d]pyrimidin-2-yl)amino)-N-(4-(3-(2,4-dihydroxy-5-isopropylphenyl)-5-hydroxy-4H-1,2,4-triazol-4-yl)phenethyl)propanamide, trifluoroacetic acid] |
| 0.1 to 1 µM | > 1 µM | – | – | C=CC(=O)N1CCN(c2nc(NCCC(=O)N3CCC(Cc4ccc(-n5c(O)nnc5-c5cc(C(C)C)c(O)cc5O)cc4)CC3)nc3c2CCN(c2cc(O)cc4ccccc24)C3)CC1 [Compound 1, 1-(4-(2-((3-(4-(4-(3-(2,4-dihydroxy-5-isopropylphenyl)-5-hydroxy-4H-1,2,4-triazol-4-yl)benzyl)piperidin-1-yl)-3-oxopropyl)amino)-7-(3-hydroxynaphthalen-1-yl)-5,6,7,8-tetrahydropyrido[3,4-d]pyrimidin-4-yl)piperazin-1-yl)prop-2-en-1-one, trifluoroacetic acid] |
| > 1 µM | > 1 µM | – | – | C=CC(=O)N1CCN(c2nc(NCCC(=O)NCc3ccc(-n4c(O)nnc4-c4ccc(O)cc4O)cc3)nc3c2CCN(c2cccc4cccc(Cl)c24)C3)C[C@@H]1CC#N [Compound 111, (S)-3-((4-(4-acryloyl-3-(cyanomethyl)piperazin-1-yl)-7-(8-chloronaphthalen-1-yl)-5,6,7,8-tetrahydropyrido[3,4-d]pyrimidin-2-yl)amino)-N-(4-(3-(2,4-dihydroxyphenyl)-5-hydroxy-4H-1,2,4-triazol-4-yl)benzyl)propanamide, trifluoroacetic acid] |
| < 0.1 µM | – | > 1 µM | 0.1 to 1 µM | C=CC(=O)N1CCN(c2nc(OC[C@@H]3CC[C@H](COC(=O)NCc4ccc(-n5c(O)nnc5-c5cc(CC)c(O)cc5O)cc4)N3C)nc3c2CCN(c2cccc4cccc(Cl)c24)C3)C[C@@H]1CC#N [Compound 296, ((2R,5S)-5-(((4-((S)-4-acryloyl-3-(cyanomethyl)piperazin-1-yl)-7-(8-chloronaphthalen-1-yl)-5,6,7,8-tetrahydropyrido[3,4-d]pyrimidin-2-yl)oxy)methyl)-1-methylpyrrolidin-2-yl)methyl4-(3-(5-ethyl-2,4-dihydroxyphenyl)-5-hydroxy-4H-1,2,4-triazol-4-yl)benzylcarbamate] |
| < 0.1 µM | – | > 1 µM | 0.1 to 1 µM | C=CC(=O)N1CCN(c2nc(OC[C@@H]3CC[C@H](C(=O)N4CCN(Cc5cc(C(C)C)c(O)cc5O)CC4)N3C)nc3c2CCN(c2cccc4cccc(Cl)c24)C3)C[C@@H]1CC#N [Compound 329, 2-[(2S)-4[7-(8chloronaphthalen-1-yl)-2-{[(2S,5R)-5-{4-[(2,4-dihydroxy-5-isopropylphenyl)methyl]piperazine-1-carbonyl}-1-methylpyrrolidin-2-yl]methoxy}-5H,6H,8H-pyrido[3,4-d]pyrimidin-4-yl]-1-(prop-2-enoyl)piperazin-2-yl]acetonitrile] |
| < 0.1 µM | – | 0.1 to 1 µM | < 0.1 µM | C=CC(=O)N1CCN(c2nc(OC[C@@H]3C[C@H](N4CCC(C(=O)N5CCN(Cc6ccc(-n7c(O)nnc7-c7cc(C(C)C)c(O)cc7O)cc6)CC5)CC4)CN3C)nc3c2CCN(c2cccc4cccc(Cl)c24)C3)C[C@@H]1CC#N [Compound 317, 2-[(2S)-4-[7-(8-chloronaphthalen-1-yl)-2-{[(2S,4S)-4-{4-[4-({4-[3-(2,4-dihydroxy-5-isopropylphenyl)-5-hydroxy-1,2,4-triazol-4-yl]phenyl}methyl)piperazine-1-carbonyl]piperidin-1-yl}-1-methylpyrrolidin-2yl]methoxy}-5H,6H,8H-pyrido[3,4-d]pyrimidin-4-yl]-1-(prop-2-enoyl)piperazin-2-yl]acetonitrile] |
